Assays:
Assay type in all cases: in vivo
[1] = test system: Chilo suppressalis (Striped Rice Stemborer); assay: Activity against Chilo suppressalis (striped rice stemborer), artificial diet; conditions: 144 h, application rate of 200 ppm, L2 larvae, 6 days after infestation, read-out: control (mortality, anti-feeding effect, growth inhibition)
Procedure: 24-well microtiter plates with artificial diet were treated with aqueous test solutions prepared from 10′000 ppm DMSO stock solutions by pipetting. After drying, the plates were infested with L2 larvae (6-8 per well). The samples were assessed for mortality, anti-feeding effect, and growth inhibition in comparison to untreated samples 6 days after infestation. Control of Chilo suppressalis by a test sample is given when at least one of the categories mortality, anti-feedant effect, and growth inhibition is higher than the untreated sample.

[2] = test system: Diabrotica Balteata (Corn Root Worm); assay: Activity against Diabrotica balteata (corn root worm), maize sprouts sprayed; conditions: 96 h, application rate of 200 ppm, L2 larvae, 4 days after infestation, read-out: effect in at least one of the two categories (mortality or growth inhibition)
Procedure: Maize sprouts placed onto an agar layer in 24-well microtiter plates were treated with aqueous test solutions prepared from 10′000 ppm DMSO stock solutions by spraying. After drying, the plates were infested with L2 larvae (6 to 10 per well). The samples were assessed for mortality and growth inhibition in comparison to untreated samples 4 days after infestation.

[3] = test system: Myzus persicae (Green Peach Aphid); assay: Activity against Myzus persicae (green peach aphid), feeding/contact activity; conditions: 144 h, application rate of 200 ppm, mixed ages, 6 days after infestation
Procedure: Sunflower leaf discs were placed onto agar in a 24-well microtiter plate and sprayed with aqueous test solutions prepared from 10′000 ppm DMSO stock solutions. After drying, the leaf discs were infested with an aphid population of mixed ages. The samples were assessed for mortality 6 days after infestation.

[4] = test system: Plutella xylostella (Diamond Back Moth); assay: Activity against Plutella xylostella (diamond back moth), artificial diet; conditions: 192 h, application rate of 200 ppm, eggs, 8 days after infestation, read-out: effect in at least one of the two categories (mortality or growth inhibition)
Procedure: 24-well microtiter plates with artificial diet were treated with aqueous test solutions prepared from 10′000 ppm DMSO stock solutions by pipetting. After drying, Plutella eggs were pipetted through a plastic stencil onto a gel blotting paper and the plate was closed with it. The samples were assessed for mortality and growth inhibition in comparison to untreated samples 8 days after infestation.

[5] = test system: Spodoptera littoralis (Egyptian Cotton Leaf Worm); assay: Activity against Spodoptera littoralis (Egyptian cotton leaf worm), cotton leaf discs sprayed; conditions: foliar, 72 h, application rate of 200 ppm, L1 larvae, 3 days after infestation, read-out: control (mortality, anti-feeding effect, growth inhibition)
Procedure: Cotton leaf discs were placed onto agar in 24-well microtiter plates and sprayed with aqueous test solutions prepared from 10′000 ppm DMSO stock solutions. After drying the leaf discs were infested with five L1 larvae. The samples were assessed for mortality, anti-feeding effect, and growth inhibition in comparison to untreated samples 3 days after infestation. Control of Spodoptera littoralis by a test sample is given when at least one of the categories mortality, anti-feedant effect, and growth inhibition is higher than the untreated sample.

[6] = test system: Carpocapsa (Cydia) Pomonella (Codling Moth); assay: Activity against Carpocapsa (Cydia) pomonella (codling moth), larvicide, feeding/contact; conditions: 336 h, application rate of 12.5 ppm, L1 larvae, 14 days after infestation, read-out: effect in at least one of the two categories (mortality or growth inhibition)
Procedure: Diet cubes coated with paraffin were sprayed with diluted test solutions in an application chamber. After drying off the treated cubes (10 replicates) were infested with 1 L1 larvae. Samples were incubated at 26-27° C. and checked 14 days after infestation for mortality and growth inhibition. The following compounds gave an effect of at least 80% in at least one of the two categories (mortality or growth inhibition) at an application rate of 12.5 ppm: P1, P2, P3, P5, P9, P10, P11, P12, P14, P17, P19, P20, P21, P23, P24, P30, P31.

[7] = test system: Nilaparvata lugens (Brown Plant Hopper); assay: Activity against Nilaparvata lugens (brown plant hopper), larvicide, systemic into water; conditions: 168 h, application rate of 12.5 ppm, N3 nymphs, 7 days after infestation
Procedure: Larvicide, systemic into water Rice plants cultivated in a nutritive solution were treated with the diluted test solutions into nourishing cultivation system. 1 day after application plants were infested with ˜20 N3 nymphs. 7 days after infestation samples were assessed for mortality and growth regulation.

[8] = test system: Euschistus heros (Neotropical Brown Stink Bug); assay: Activity against Euschistus heros (neotropical brown stink bug), soybean leaves sprayed; conditions: 120 h, application rate of 200 ppm, N2 nymphs, 5 days after infestation, read-out: effect in at least one of the two categories (mortality or growth inhibition)
Procedure: Soybean leaves on agar in 24-well microtiter plates were sprayed with aqueous test solutions prepared from 10′000 ppm DMSO stock solutions. After drying the leaves were infested with N2 nymphs. The samples were assessed for mortality and growth inhibition in comparison to untreated samples 5 days after infestation.

[9] = test system: Myzus persicae (Green Peach Aphid); assay: Activity against Myzus persicae (green peach aphid), systemic activity; conditions: 144 h, test rate of 24 ppm, pea seedling roots in test solution, 6 days
Procedure: Roots of pea seedlings infested with an aphid population of mixed ages were placed directly into aqueous test solutions prepared from 10′000 DMSO stock solutions. The samples were assessed for mortality 6 days after placing seedlings into test solutions.

CCS(=O)(=O)c1ccc(C2CC2)nc1-c1cc2c(cn1)N(CC(F)(F)C(F)(F)F)C(=O)CC2 [P14, 6-(6-cyclopropyl-3-ethylsulfonyl-2-pyridyl)-1-(2,2,3,3,3-pentafluoropropyl)-3,4-dihydro-1,7-naphthyridin-2-one]
≥ 80%: mortality at 200 ppm [1] | percent effect (mortality or growth inhibition) at 200 ppm [2] | mortality at 200 ppm [3] | percent effect (mortality or growth inhibition) at 200 ppm [4] | mortality at 200 ppm [5] | percent effect (mortality or growth inhibition) at 12.5 ppm [6] | mortality at 12.5 ppm [7]

CCS(=O)(=O)c1cc(C(F)(F)F)cnc1-c1cc2c(cn1)N(CC(F)(F)C(F)(F)F)C(=O)OC2 [P10, 6-[3-ethylsulfonyl-5-(trifluoromethyl)-2-pyridyl]-1-(2,2,3,3,3-pentafluoropropyl)-4H-pyrido[3,4-d][1,3]oxazin-2-one]
≥ 80%: mortality at 200 ppm [1] | percent effect (mortality or growth inhibition) at 200 ppm [2] | mortality at 200 ppm [3] | percent effect (mortality or growth inhibition) at 200 ppm [4] | mortality at 200 ppm [5] | percent effect (mortality or growth inhibition) at 12.5 ppm [6] | mortality at 12.5 ppm [7]

CCS(=O)(=O)c1ccc(-c2ncccn2)nc1-c1cc2c(cn1)N(CC(F)(F)C(F)(F)F)C(=O)CC2 [P22, 6-(3-ethylsulfonyl-6-pyrimidin-2-yl-2-pyridyl)-1-(2,2,3,3,3-pentafluoropropyl)-3,4-dihydro-1,7-naphthyridin-2-one]
≥ 80%: mortality at 200 ppm [1] | percent effect (mortality or growth inhibition) at 200 ppm [2] | percent effect (mortality or growth inhibition) at 200 ppm [8] | mortality at 200 ppm [3] | mortality at 24 ppm [9] | percent effect (mortality or growth inhibition) at 200 ppm [4] | mortality at 200 ppm [5]

CCS(=O)(=O)c1ccc(C2CC2)nc1-c1cc2c(cn1)N(CC(F)(F)C(F)(F)F)C(=O)OC2 [P17, 6-(6-cyclopropyl-3-ethylsulfonyl-2-pyridyl)-1-(2,2,3,3,3-pentafluoropropyl)-4H-pyrido[3,4-d][1,3]oxazin-2-one]
≥ 80%: mortality at 200 ppm [1] | percent effect (mortality or growth inhibition) at 200 ppm [2] | mortality at 200 ppm [3] | percent effect (mortality or growth inhibition) at 200 ppm [4] | mortality at 200 ppm [5] | percent effect (mortality or growth inhibition) at 12.5 ppm [6] | mortality at 12.5 ppm [7]

CCS(=O)(=O)c1cc(OC(C)(C)C#N)cnc1-c1cc2c(cn1)N(CC(F)(F)C(F)(F)F)C(=O)CC2 [P20, 2-[[5-ethylsulfonyl-6-[2-oxo-1-(2,2,3,3,3-pentafluoropropyl)-3,4-dihydro-1,7-naphthyridin-6-yl]-3-pyridyl]oxy]-2-methyl-propanenitrile]
≥ 80%: mortality at 200 ppm [1] | percent effect (mortality or growth inhibition) at 200 ppm [2] | percent effect (mortality or growth inhibition) at 200 ppm [8] | mortality at 200 ppm [3] | percent effect (mortality or growth inhibition) at 200 ppm [4] | mortality at 200 ppm [5] | percent effect (mortality or growth inhibition) at 12.5 ppm [6] | mortality at 12.5 ppm [7]

CCS(=O)(=O)c1cc(C(F)(F)F)cnc1-c1cc2c(cn1)N(CC(F)(F)C(F)(F)F)C(=O)CC2 [P9, 6-[3-ethylsulfonyl-5-(trifluoromethyl)-2-pyridyl]-1-(2,2,3,3,3-pentafluoropropyl)-3,4-dihydro-1,7-naphthyridin-2-one]
≥ 80%: mortality at 200 ppm [1] | percent effect (mortality or growth inhibition) at 200 ppm [2] | mortality at 200 ppm [3] | percent effect (mortality or growth inhibition) at 200 ppm [4] | mortality at 200 ppm [5] | percent effect (mortality or growth inhibition) at 12.5 ppm [6] | mortality at 12.5 ppm [7]

CCS(=O)(=O)c1cc(C2(C#N)CC2)cnc1-c1cc2c(cn1)N(CC(F)(F)F)C(=O)OC2 [P34, 1-[5-ethylsulfonyl-6-[2-oxo-1-(2,2,2-trifluoroethyl)-4H-pyrido[3,4-d][1,3]oxazin-6-yl]-3-pyridyl]cyclopropanecarbonitrile]
≥ 80%: percent effect (mortality or growth inhibition) at 200 ppm [2] | mortality at 200 ppm [3] | mortality at 24 ppm [9] | percent effect (mortality or growth inhibition) at 200 ppm [4]

CCS(=O)(=O)c1cc(C(C)(C)C#N)cnc1-c1cc2c(cn1)N(CC(F)(F)C(F)(F)F)C(=O)OC2 [P15, 2-[5-ethylsulfonyl-6-[2-oxo-1-(2,2,3,3,3-pentafluoropropyl)-4H-pyrido[3,4-d][1,3]oxazin-6-yl]-3-pyridyl]-2-methyl-propanenitrile]
≥ 80%: mortality at 200 ppm [1] | percent effect (mortality or growth inhibition) at 200 ppm [2] | percent effect (mortality or growth inhibition) at 200 ppm [8] | mortality at 200 ppm [3] | mortality at 24 ppm [9] | percent effect (mortality or growth inhibition) at 200 ppm [4] | mortality at 200 ppm [5]

CCS(=O)(=O)c1cc(C(C)(C)F)cnc1-c1cc2c(cn1)N(CC(F)(F)C(F)(F)F)C(=O)OC2 [P30, 6-[3-ethylsulfonyl-5-(1-fluoro-1-methyl-ethyl)-2-pyridyl]-1-(2,2,3,3,3-pentafluoropropyl)-4H-pyrido[3,4-d][1,3]oxazin-2-one]
≥ 80%: mortality at 200 ppm [1] | percent effect (mortality or growth inhibition) at 200 ppm [2] | percent effect (mortality or growth inhibition) at 200 ppm [4] | mortality at 200 ppm [5] | percent effect (mortality or growth inhibition) at 12.5 ppm [6] | mortality at 12.5 ppm [7]

CCS(=O)(=O)c1cc(N(C)C(C)=O)cnc1-c1cc2c(cn1)N(CC(F)(F)C(F)(F)F)C(=O)OC2 [P18, N-[5-ethylsulfonyl-6-[2-oxo-1-(2,2,3,3,3-pentafluoropropyl)-4H-pyrido[3,4-d][1,3]oxazin-6-yl]-3-pyridyl]-N-methyl-acetamide]
≥ 80%: mortality at 200 ppm [1] | mortality at 200 ppm [3] | mortality at 24 ppm [9] | percent effect (mortality or growth inhibition) at 200 ppm [4] | mortality at 200 ppm [5]

CCS(=O)(=O)c1cc(N(C)C(C)=O)cnc1-c1cc2c(cn1)N(CC(F)(F)C(F)(F)F)C(=O)CC2 [P8, N-[5-ethylsulfonyl-6-[2-oxo-1-(2,2,3,3,3-pentafluoropropyl)-3,4-dihydro-1,7-naphthyridin-6-yl]-3-pyridyl]-N-methyl-acetamide]
≥ 80%: mortality at 200 ppm [1] | percent effect (mortality or growth inhibition) at 200 ppm [8] | mortality at 200 ppm [3] | mortality at 24 ppm [9] | percent effect (mortality or growth inhibition) at 200 ppm [4] | mortality at 200 ppm [5]

CCS(=O)(=O)c1cc(OCC(C)(F)F)cnc1-c1cc2c(cn1)N(CC(F)(F)C(F)(F)F)C(=O)CC2 [P24, 6-[5-(2,2-difluoropropoxy)-3-ethylsulfonyl-2-pyridyl]-1-(2,2,3,3,3-pentafluoropropyl)-3,4-dihydro-1,7-naphthyridin-2-one]
≥ 80%: mortality at 200 ppm [1] | percent effect (mortality or growth inhibition) at 200 ppm [2] | percent effect (mortality or growth inhibition) at 200 ppm [8] | mortality at 200 ppm [3] | percent effect (mortality or growth inhibition) at 200 ppm [4] | mortality at 200 ppm [5] | percent effect (mortality or growth inhibition) at 12.5 ppm [6] | mortality at 12.5 ppm [7]

Reference: US20240122182A1, “PESTICIDALLY ACTIVE HETEROCYCLIC DERIVATIVES WITH SULFUR CONTAINING SUBSTITUENTS” (SYNGENTA CROP PROTECTION AG, priority 2021, published 2024)
